Values joined by “and” are separate entries in the source; they are usually repeats but may differ in a detail not shown here. Equal entries are not always repeated. One block for each compound: values may come before it.
Tests used:
[1] = tested on: BJ human normal fibroblast cells; assay: MTT cell viability assay, BJ normal fibroblasts; format: cell-based; settings: MTT test, 24 h treatment
Experimental: (§1) The evaluation of cytotoxicity of tested compounds was carried out on the G361, A375, and SK-MEL-28 human melanoma cells and BJ human normal fibroblast cells. The cell lines were obtained from American Type Culture Collection (ATCC, Manassas, VA, USA). The cells were cultured at 37 °C in the presence of 5% CO2 in atmosphere. The culture medium (Dulbecco’s Modified Eagle’s Medium for G361 and A375 and Eagle’s Minimum Essential Medium for SK-MEL-28 and BJ) was supplemented with 10% foetal bovine serum. The cells morphology was examined under inverted phase contrast microscope Nikon Eclipse Ti (Nikon, Tokyo, Japan). The authenticity of tested cell lines was verified by short tandem repeat (STR) genotyping in the Department of Forensic Medicine (Medical University of Lublin, Lublin, Poland).
(§2) The cells were seeded into 96-well plates (in concentration: BJ, A375, and SK-MEL-28—1 × 10^5 cells/mL, G361—1.5 × 10^5 cells/mL) and cultured until they reach 70–80% confluency. Then the cells were incubated with tested compounds and dacarbazine in concentrations ranging from 10 to 500 µM or DMSO as vehicle in control cultures for next 24 h (max. DMSO concentration <0.5%). The compounds cytotoxicity was evaluated with the MTT colorimetric method based on the ability of viable cells to the transformation of tetrazolium salts (3-[4,5-dimethylthiazol-2-yl]-2,5-) diphenyltetrazolium bromide, MTT) to purple formazan, by cellular dehydrogenases. After 24-h-incubation cell cultures were supplemented with 20 µL of 5 mg/mL MTT (Thermofisher, Waltham, MA, USA) stock in PBS (Corning, NY, USA), and the incubation was continued for 4 h at 37 °C. Next, the medium with MTT was removed, and the formed crystals were dissolved in 200 µL of DMSO (dimethyl sulfoxide, Avantor, Gliwice, Poland). The solution absorbency was measured at 570 nm, using a PowerWave™ xs microplate spectrophotometer (BioTek Instruments, Winooski, VT, USA). The experiment was performed three times with three replicates for each concentration of tested compounds. IC50 values were determined using the AAT Bioquest IC50 calculator [51]. On the basis of obtained IC50 values for normal and malignant cells, A375 cell line and three tested compounds (CuT1, Cu10, CuT16) were chosen for further investigation.

[2] = tested on: G361 human melanoma cells; assay: MTT cell viability assay, G361 melanoma; format: cell-based; settings: G361, MTT test, 24 h treatment
Experimental: as §1, §2

[3] = tested on: A375 human melanoma cells; assay: MTT cell viability assay, A375 melanoma; format: cell-based; settings: for IC50: A375, MTT test, 24 h treatment; for toxicity to A375 / malignant cells versus normal cells (in words): from IC50 values, MTT, 24 h
Experimental: as §1, §2

[4] = tested on: SK-MEL-28 human melanoma cells; assay: MTT cell viability assay, SK-MEL-28 melanoma; format: cell-based; settings: SK-MEL-28, MTT test, 24 h treatment
Experimental: as §1, §2

DNA of A375 cells = assay: DNA damage evaluation: number of AP sites; format: cell-based, human; settings: A375, 24 h, concentration corresponding to IC50; control 0.67 ± 0.08
Experimental: DNA damage was evaluated on the basis of a basic (AP) sites presence, that arose in response to oxidative damage or as an intermediate in base excision repair pathway. The A375 cells were seeded in 6-well culture plates at a density 1 × 10^5 cells/mL and after 70–80% confluency achievement the cells were treated with CuT1, Cu10, CuT16 in concentrations corresponding to IC50 values or DMSO as vehicle in control cultures. After 24 h of incubation genomic DNA was isolated using Syngen DNA Mini Kit (Syngen Biotech, Wroclaw, Poland) according to the manufacturer’s instruction. The concentrations of isolated DNA for all samples were equalized to 100 µg/mL. The measurements of the number of AP sites were evaluated with DNA Damage Quantification Kit (Dojindo, Japan) according to the manufacturer’s instruction. The DNA was treated with Aldehyde Reactive Probe (ARP) to tag all of the AP sites with a biotin residue. Then all of the AP sites were quantified using avidin—biotin assay. The coloured product of horseradish peroxidase conjugated to the avidin was detected at 650 nm using a PowerWave™ xs microplate spectrophotometer (BioTek Instruments, Winooski, VT, USA).

ERCC = assay: qRT-PCR gene expression in A375 cells: ERCC; format: cell-based, human; settings: A375, 24 h, concentration corresponding to IC50; RQ = 2^-ΔΔCt vs control
Experimental: (§3) The expression level of genes connected with DNA repair and oxidative stress response was evaluated with quantitative real-time PCR (qRT-PCR) method. The A375 cells were seeded in 6-well culture plates at a density 1 × 10^5 cells/mL and after 70–80% confluency achievement the cells were treated with CuT1, Cu10, CuT16 in concentrations corresponding to IC50 values or DMSO as vehicle in control cultures. After 24h of incubation total RNA was isolated using the Syngen Blood/Cell RNA Mini Kit (Syngen Biotech, Wroclaw, Poland). All samples were transcribed using NG dART RT-PCR reagents (EURx, Gdansk, Poland) according to the manufacturer’s instructions. The relative mRNA expression level was determined by relative quantification method (ΔΔCt) using 18S ribosomal N5 (RNA18SN5) and beta-actin (ACTB) as endogenous controls. The reference genes were selected on the basis of our preliminary studies, where RNA18SN5 and ACTB remained unaffected by the experimental conditions. The PCR was conducted in triplicate using Applied Biosystems® 7500 Fast Real-Time PCR system (Applied Biosystems, Foster City, CA, USA) and SG qPCR Master Mix (2×) (EURx, Gdansk, Poland) in accordance with the manufacturer’s protocol. Data was presented and analysed as RQ values (RQ = 2^−ΔΔCt).

MGMT = assay: qRT-PCR gene expression in A375 cells: MGMT; format: cell-based, human; settings: A375, 24 h, concentration corresponding to IC50; RQ = 2^-ΔΔCt vs control
Experimental: as §3

OGG1 = assay: qRT-PCR gene expression in A375 cells: OGG1; format: cell-based, human; settings: A375, 24 h, concentration corresponding to IC50; RQ = 2^-ΔΔCt vs control
Experimental: as §3

MLH1 = assay: qRT-PCR gene expression in A375 cells: MLH1; format: cell-based, human; settings: A375, 24 h, concentration corresponding to IC50; RQ = 2^-ΔΔCt vs control
Experimental: as §3

PARP1 = assay: qRT-PCR gene expression in A375 cells: PARP1; format: cell-based, human; settings: A375, 24 h, concentration corresponding to IC50; RQ = 2^-ΔΔCt vs control
Experimental: as §3

ATM = assay: qRT-PCR gene expression in A375 cells: ATM; format: cell-based, human; settings: A375, 24 h, concentration corresponding to IC50; RQ = 2^-ΔΔCt vs control
Experimental: as §3

XPC = assay: qRT-PCR gene expression in A375 cells: XPC; format: cell-based, human; settings: A375, 24 h, concentration corresponding to IC50; RQ = 2^-ΔΔCt vs control
Experimental: as §3

MSH2 = assay: qRT-PCR gene expression in A375 cells: MSH2; format: cell-based, human; settings: A375, 24 h, concentration corresponding to IC50; RQ = 2^-ΔΔCt vs control
Experimental: as §3

CAT = assay: qRT-PCR gene expression in A375 cells: CAT; format: cell-based, human; settings: A375, 24 h, concentration corresponding to IC50; RQ = 2^-ΔΔCt vs control
Experimental: as §3

GPX2 = assay: qRT-PCR gene expression in A375 cells: GPX2; format: cell-based, human; settings: A375, 24 h, concentration corresponding to IC50; RQ = 2^-ΔΔCt vs control
Experimental: as §3

SOD2 = assay: qRT-PCR gene expression in A375 cells: SOD2; format: cell-based, human; settings: A375, 24 h, concentration corresponding to IC50; RQ = 2^-ΔΔCt vs control
Experimental: as §3

A375 cells = assay: Microscopic observation of cell morphology; format: cell-based, human; settings: A375, 24 h, concentration corresponding to IC50
Experimental: The MTT test results for selected compounds were verified by microscopic observations of cell morphology. […] A large part of the cells floated in the culture medium (Figure 5).
as §1

- IC50 [2]: 136 ± 7.01 µM
- IC50 [3]: 69.9 ± 1.87 µM
- IC50 [4]: 130 ± 3.98 µM
Compound: COc1ccc(C=NNC(=S)Nc2ccccc2)cc1OC.[Cl-].[Cl-].[Cu+2] [CuT1]
- IC50 [1]: 257 ± 4.45 µM
- toxicity to A375 / malignant cells versus normal cells (in words) [3]: less toxic for normal cells
- AP sites number (DNA of A375 cells): 20.24 ± 0.19 AP/100 kbp
- Mean RQ ERCC mRNA (ERCC): 0.401
- Mean RQ MGMT mRNA (MGMT): 0.715
- Mean RQ OGG1 mRNA (OGG1): 0.902
- Mean RQ MLH1 mRNA (MLH1): 1.001
- Mean RQ PARP1 mRNA (PARP1): 0.908
- Mean RQ ATM mRNA (ATM): 1.452
- Mean RQ XPC mRNA (XPC): 1.038
- Mean RQ MSH2 mRNA (MSH2): 0.973
- Mean RQ CAT mRNA (CAT): 0.773
- Mean RQ GPX2 mRNA (GPX2): 0.000
- Mean RQ SOD2 mRNA (SOD2): 1.510
- cell morphology (in words) (A375 cells): became round and had poor adherence

- IC50 [2]: 251 ± 11.1 µM
- IC50 [3]: 26.1 ± 1.75 µM
- IC50 [4]: 133 ± 8.34 µM
Compound: COc1ccc(C=NNC(=S)Nc2ccccc2Cl)cc1OC.COc1ccc(C=NNC(=S)Nc2ccccc2Cl)cc1OC.[Cl-].[Cl-].[Cu+2] [CuT10]
- IC50 [1]: 203 ± 8.67 µM
- toxicity to A375 / malignant cells versus normal cells (in words) [3]: less toxic for normal cells
- AP sites number (DNA of A375 cells): 2.043 ± 0.02 AP/100 kbp
- Mean RQ ERCC mRNA (ERCC): 1.215
- Mean RQ MGMT mRNA (MGMT): 0.448
- Mean RQ OGG1 mRNA (OGG1): 0.264 ± 0.071 and 0.264
- Mean RQ MLH1 mRNA (MLH1): 0.337
- Mean RQ PARP1 mRNA (PARP1): 0.342
- Mean RQ ATM mRNA (ATM): 2.038
- Mean RQ XPC mRNA (XPC): 1.456
- Mean RQ MSH2 mRNA (MSH2): 1.337
- Mean RQ CAT mRNA (CAT): 0.801
- Mean RQ GPX2 mRNA (GPX2): 0.022
- Mean RQ SOD2 mRNA (SOD2): 1.430
- cell morphology (in words) (A375 cells): became round and had poor adherence

- IC50 [2]: 157 ± 2.75 µM
- IC50 [3]: 40.5 ± 0.98 µM
- IC50 [4]: 46.1 ± 2.74 µM
Compound: S=C(NN=Cc1ccc(Cl)c(Cl)c1)Nc1ccccc1Cl.S=C(NN=Cc1ccc(Cl)c(Cl)c1)Nc1ccccc1Cl.[Cl-].[Cl-].[Cu+2] [CuT12]
- IC50 [1]: 42.9 ± 1.17 µM

- IC50 [2]: 148 ± 9.77 µM
- IC50 [3]: 110 ± 2.95 µM
- IC50 [4]: 119 ± 9.75 µM
Compound: S=C(NN=Cc1ccc(Br)cc1)Nc1cccc(Cl)c1.[Cl-].[Cl-].[Cu+2] [CuT13]
- IC50 [1]: 130 ± 3.45 µM

- IC50 ([2]; Homo sapiens, G-361): 426 ± 4.74 µM
- IC50 ([3]; Homo sapiens, A-375): 413 ± 7.08 µM
- IC50 ([4]; Homo sapiens): 370 ± 9.46 µM
Compound: CN(C)/N=N/c1[nH]cnc1C(N)=O [DTIC, dacarbazine, reference compound]
- IC50 ([1]; Homo sapiens, Fibroblast): > 500 µM

- IC50 ([2]; Homo sapiens, G-361): 488.1 ± 1.66 µM
- IC50 ([3]; Homo sapiens, A-375): 321 ± 2.85 µM
- IC50 ([4]; Homo sapiens): > 500 µM
Compound: COc1ccc(C=NNC(=S)Nc2ccccc2)cc1OC [T1]
- IC50 ([1]; Homo sapiens, Fibroblast): 358 ± 7.85 µM

- melting point: 170 to 172 °C
Compound: CNC(=S)NN=C(C)c1ccc(N)cc1 [T4, 2-[1-(4-Aminophenyl)ethylidene]-N-methyl-hydrazine-1-carbothioamide]

- melting point: 178 to 180 °C
Compound: Cc1ccccc1NC(=S)NN=Cc1ccc(Br)cc1 [T6, 2-[(4-Bromophenyl)methylidene]-N-(2-methylphenyl)hydrazine-1-carbothioamide]

- melting point: 205 to 206 °C
Compound: COc1ccc(C=NNC(=S)Nc2ccccc2C)cc1OC [T7, 2-[(3,4-Dimethoxyphenyl)methylidene]-N-(2-methylphenyl)hydrazine-1-carbothioamide]

— article PMC8002893, “Influence of Complexation of Thiosemicarbazone Derivatives with Cu (II) Ions on Their Antitumor Activity against Melanoma Cells” (International Journal of Molecular Sciences, 2021)
